Measurements published in ChEMBL document CHEMBL4219158 (Bioorg Med Chem Lett, 2018).
Active and inactive are the calls of the source. The calls are words filed in the database; no cut-off is given here.

Experiments:
[1] = target: T1, 5-hydroxytryptamine receptor 2A (Homo sapiens, UniProt P28223); assay: Antagonist activity at human recombinant 5-HT2A receptor expressed in CHOK1 cells assessed as inhibition of serotonin-induced calcium release preincubated for 15 mins followed by 5-HT addition measured every 1.7 secs for 60 secs by calcium 4 dye-based FLIPR assay; type: functional, cell-based
T1 sequence (P28223 whole entry): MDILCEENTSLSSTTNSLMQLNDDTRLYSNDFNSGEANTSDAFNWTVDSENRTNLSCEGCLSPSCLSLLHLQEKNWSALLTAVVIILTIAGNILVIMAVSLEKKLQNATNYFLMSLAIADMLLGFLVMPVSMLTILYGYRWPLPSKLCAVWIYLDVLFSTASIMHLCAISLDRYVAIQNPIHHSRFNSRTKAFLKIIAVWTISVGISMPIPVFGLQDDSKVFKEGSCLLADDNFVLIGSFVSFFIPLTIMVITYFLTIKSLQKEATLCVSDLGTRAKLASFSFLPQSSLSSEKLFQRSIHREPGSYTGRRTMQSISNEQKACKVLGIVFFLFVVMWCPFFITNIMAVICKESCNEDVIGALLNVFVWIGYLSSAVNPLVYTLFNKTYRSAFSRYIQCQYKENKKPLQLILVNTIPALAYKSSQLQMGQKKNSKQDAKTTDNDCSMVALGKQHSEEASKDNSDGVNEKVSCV

[2] = target: T1, 5-hydroxytryptamine receptor 2A; assay: Agonist activity at human recombinant 5-HT2A receptor expressed in CHOK1 cells assessed as induction of calcium release incubated for 15 mins measured every 1.7 secs for 60 secs by calcium 4 dye-based FLIPR assay; type: functional, cell-based

SMILES	IC50 [1] [nM]	inhibition [1]	Activity [2]
C#CCOCCOCCOc1cccc([C@H](O)C2CCN(CCc3ccc(F)cc3)CC2)c1OC	56.6	Dose-dependent effect	inactive
COc1c(OCCOCCOCCOCCOCCOCCOc2cccc(C(=O)C3CCN(CCc4ccc(F)cc4)CC3)c2OC)cccc1C(=O)C1CCN(CCc2ccc(F)cc2)CC1	39.8	–	–
COc1c(OCCOCCN=[N+]=[N-])cccc1[C@H](O)C1CCN(CCc2ccc(F)cc2)CC1	46.7	Dose-dependent effect	inactive
COc1c(OCCOCCOc2cn(CCOCCOc3cccc([C@H](O)C4CCN(CCc5ccc(F)cc5)CC4)c3OC)nn2)cccc1[C@H](O)C1CCN(CCc2ccc(F)cc2)CC1	36.5	Dose-dependent effect	inactive
COc1c(OCCOCCOCCOCCOCCOc2cccc(C(=O)C3CCN(CCc4ccc(F)cc4)CC3)c2OC)cccc1C(=O)C1CCN(CCc2ccc(F)cc2)CC1	29.5	–	–
